According to patent US20130065227A1, “METHODS OF INCREASING MACROPINOCYTOSIS IN CANCER CELLS” (priority 2010, published 2013):
{Fluor} = fluorophore: 5-carboxyfluorescein (FAM) or Alexa Fluor 488

Legend:
Cells = assay: Antiproliferative MTT assay (FIG. 7); type: cell-based
Experimental: FIG. 7 are graphs showing the results of comparative experiments. (Panel A) Cells were plated in 96-well plates at low density (1,000 cells per well) and incubated 18 hrs at 37° C. to allow adherence. Cells were treated by addition of different concentrations of AS1411 (obtained from Antisoma), AS1411 (obtained from Invitrogen), tAS1411, FL-AS1411, CRO, or tCRO directly to the medium, and proliferation was measured using a 3-(4,5-dimethylthiazol-2-yl)-2,5-diphenyltetrazolium bromide assay as described previously (Bates et al., 1999, J. Biol. Chem., 274:26369-77). Points represent mean of triplicate samples with SE. (Panel B) 10 μM FL-AS1411 or 10 μM FL-CRO were added to DU145 cells plated on 6-well plates. After incubation at 37° C. for 2 hrs, cells were washed twice with ice-cold PBS and harvested by trypsin treatment. Some cells were washed twice with ice-cold PBS containing dextran sulfate ([…]) or trypan blue ([…], pH 4.4). Cells were resuspended in ice-cold PBS and immediately analyzed by flow cytometry.
Oligodeoxynucleotides were purchased from Invitrogen (Carlsbad, Calif.). […]

[1] = tested on: cancer cells (DU145, HeLa, MDA-MB-231) and non-malignant Hs27 skin fibroblasts; assay: Temperature-dependence of oligonucleotide uptake by flow cytometry; type: cell-based; conditions: 10 μM, 37° C. or 4° C. for 2 h, all cell types
Experimental: FIG. 1 are graphs showing that AS1411 cell internalization is an active process. Cells were plated 18 h before uptake analysis. After incubation as described, cells were washed with ice-cold PBS, incubated with 1 μg/ml 7-AAD, harvested and resuspended in 1% paraformaldehyde containing 2 μg/ml actinomycin D, then analyzed by flow cytometry. (Panel A) DU145 cells were incubated at 37° C. with fresh complete DMEM medium containing 10 μM FL-AS1411 (black line) or 10 μM FL-CRO (gray line) for the time indicated. (Panel B) DU145 cells were incubated for 2 h at 37° C. in complete or serum-free DMEM medium containing 10 μM FL-AS1411, or 10 μM FL-CRO, or no oligonucleotide. (Panel C) Various cell lines were incubated with 10 μM FL-AS1411 (black outline histogram), 10 μM FL-CRO (gray outline histogram) or without DNA (solid gray histogram) at 37° C. or 4° C. for 2 h. All experiments were repeated at least three times. Data are mean of three independent samples; bars, SE; *(p<0.05). […]
To determine whether AS1411 uptake occurs through an active uptake process, the temperature-dependence of AS1411 uptake in cancer cells (DU145, HeLa, MDA-MB-231) and non-malignant Hs27 skin fibroblasts was evaluated using flow cytometry. […]

Hs27 = assay: Cell response to AS1411; type: cell-based, human; conditions: Non-cancer, skin fibroblasts
From the text: (§1) It has recently been discovered that AS1411 can stimulate macropinocytosis (MP) in cancer cells and this finding was verified by several different methods and in multiple cancer cell lines (Table 1).

MCF10A = assay: Cell response to AS1411; type: cell-based, human; conditions: Non-cancer, breast epithelial
From the text: as §1

| Substance | antiproliferative activity (Cells) | temperature dependence of uptake [1] | Cells respond? (Hs27) | Cells respond? (MCF10A) |
| --- | --- | --- | --- | --- |
| 5′-Fluor-d(TTTCCTCCTCCTCCTTCTCCTCCTCCTCC) (DNA TTTCCTCCTCCTCCTTCTCCTCCTCCTCC; DNA, 5' {Fluor}, backbone and methylation of C not given here) [FL-CRO, reference compound] | no antiproliferative activity | strong temperature dependence | – | – |
| 5′-d(GGTGGTGGTGGTTGTGGTGGTGGTGG) [AS1411] | – | – | No | No |
